Reference: PubChem BioAssay AID1259407 (Chemical Carcinogenesis Research Information System (CCRIS), 2018)
Activity calls are given as the source filed them. The rule behind the calls is not given here.

Test system: CCRIS mutagenicity, Ames/micronucleus/aberration tests
Assay: CCRIS mutagenicity studies

Measured: mutagenic call

Cc1cc(-c2cc(C)c(N)c(C)c2)cc(C)c1N
inactive: Test System: AMES SALMONELLA TYPHIMURIUM, Strain/Indicator: TA97, Metabolic Activation: HAMSTER, LIVER, S-9, AROCLOR 1254 (10%), Method: PREINCUBATION inactive; negative | Test System: AMES SALMONELLA TYPHIMURIUM, Strain/Indicator: TA97, Metabolic Activation: HAMSTER, LIVER, S-9, AROCLOR 1254 (30%), Method: PREINCUBATION inactive; negative | Test System: AMES SALMONELLA TYPHIMURIUM, Strain/Indicator: TA97, Metabolic Activation: NONE, Method: PREINCUBATION inactive; negative | Test System: AMES SALMONELLA TYPHIMURIUM, Strain/Indicator: TA97, Metabolic Activation: RAT, LIVER, S-9, AROCLOR 1254 (10%), Method: PREINCUBATION inactive; negative | Test System: AMES SALMONELLA TYPHIMURIUM, Strain/Indicator: TA97, Metabolic Activation: RAT, LIVER, S-9, AROCLOR 1254 (30%), Method: PREINCUBATION inactive; negative | Test System: AMES SALMONELLA TYPHIMURIUM, Strain/Indicator: TA98, Metabolic Activation: HAMSTER, LIVER, S-9, AROCLOR 1254 (10%), Method: PREINCUBATION inactive; negative | Test System: AMES SALMONELLA TYPHIMURIUM, Strain/Indicator: TA98, Metabolic Activation: HAMSTER, LIVER, S-9, AROCLOR 1254 (30%), Method: PREINCUBATION inactive; negative | Test System: AMES SALMONELLA TYPHIMURIUM, Strain/Indicator: TA98, Metabolic Activation: NONE, Method: PREINCUBATION inactive; negative | Test System: AMES SALMONELLA TYPHIMURIUM, Strain/Indicator: TA98, Metabolic Activation: RAT LIVER S-9, AROCLOR 1254, Method: PREINCUBATION inactive; negative | Test System: AMES SALMONELLA TYPHIMURIUM, Strain/Indicator: TA98, Metabolic Activation: RAT, LIVER, S-9, AROCLOR 1254 (10%), Method: PREINCUBATION inactive; negative | Test System: AMES SALMONELLA TYPHIMURIUM, Strain/Indicator: TA98, Metabolic Activation: RAT, LIVER, S-9, AROCLOR 1254 (30%), Method: PREINCUBATION inactive; negative | Test System: AMES SALMONELLA TYPHIMURIUM, Strain/Indicator: TA100, Metabolic Activation: HAMSTER, LIVER, S-9, AROCLOR 1254 (10%), Method: PREINCUBATION inactive; negative | Test System: AMES SALMONELLA TYPHIMURIUM, Strain/Indicator: TA100, Metabolic Activation: HAMSTER, LIVER, S-9, AROCLOR 1254 (30%), Method: PREINCUBATION inactive; negative | Test System: AMES SALMONELLA TYPHIMURIUM, Strain/Indicator: TA100, Metabolic Activation: NONE, Method: PREINCUBATION inactive; negative | Test System: AMES SALMONELLA TYPHIMURIUM, Strain/Indicator: TA100, Metabolic Activation: RAT LIVER S-9, AROCLOR 1254, Method: PREINCUBATION inactive; negative | Test System: AMES SALMONELLA TYPHIMURIUM, Strain/Indicator: TA100, Metabolic Activation: RAT, LIVER, S-9, AROCLOR 1254 (10%), Method: PREINCUBATION inactive; negative | Test System: AMES SALMONELLA TYPHIMURIUM, Strain/Indicator: TA100, Metabolic Activation: RAT, LIVER, S-9, AROCLOR 1254 (30%), Method: PREINCUBATION inactive; negative | Test System: AMES SALMONELLA TYPHIMURIUM, Strain/Indicator: TA1535, Metabolic Activation: HAMSTER, LIVER, S-9, AROCLOR 1254 (10%), Method: PREINCUBATION inactive; negative | Test System: AMES SALMONELLA TYPHIMURIUM, Strain/Indicator: TA1535, Metabolic Activation: HAMSTER, LIVER, S-9, AROCLOR 1254 (30%), Method: PREINCUBATION inactive; negative | Test System: AMES SALMONELLA TYPHIMURIUM, Strain/Indicator: TA1535, Metabolic Activation: NONE, Method: PREINCUBATION inactive; negative | Test System: AMES SALMONELLA TYPHIMURIUM, Strain/Indicator: TA1535, Metabolic Activation: RAT, LIVER, S-9, AROCLOR 1254 (10%), Method: PREINCUBATION inactive; negative | Test System: AMES SALMONELLA TYPHIMURIUM, Strain/Indicator: TA1535, Metabolic Activation: RAT, LIVER, S-9, AROCLOR 1254 (30%), Method: PREINCUBATION inactive; negative | Test System: Ames Salmonella typhimurium, Strain/Indicator: TA102, Metabolic Activation: None, Method: Preincubation inactive; negative | Test System: Ames Salmonella typhimurium, Strain/Indicator: TA102, Metabolic Activation: Rat, liver, S-9, Aroclor 1254, Method: Preincubation inactive; negative | Test System: MOUSE LYMPHOMA, Strain/Indicator: L5178Y (TK+/TK-), Metabolic Activation: RAT, LIVER, S-9, AROCLOR 1254, Method: SUSPENSION/PLATE inactive; negative | Test System: MOUSE LYMPHOMA, Strain/Indicator: L5178Y (TK+/TK-), Metabolic Activation: RAT, LIVER, S-9, Method: SUSPENSION/PLATE inactive; negative
